For data set [1], the system named is human TERT expression (hTERT mRNA). In words: Quantitative real-time RT-PCR of hTERT mRNA expression (Ct, transcripts) in compound-treated cells. Type of data set: cell-based. Conditions: quantitative real-time RT-PCR. The text has this: Telomerase is a ribonucleoprotein complex composed of the catalytic protein subunit (human telomerase reverse transcriptase or hTERT) and the RNA template. hTERT expression level can be measured by PCR.
Briefly, amplification of the target sequence is monitored per PCR cycle by detecting the fluorescence signal emitted by an internal probe that is degraded by the 5′ nuclease activity of the Taq polymerase. The emission signal accumulates in each sample, and the Ct required to reach a given fluorescence threshold is determined (Ct stands for Cycle Threshold and is a measure of the number of PCR cycles that are required to amplify a target—thus, a lower Ct score means that there is more abundant hTERT mRNA). Thus, the Ct value of a sample inversely correlates to the quantity of the starting cDNA which correlates to the number of mRNA transcripts. Using the cDNA of known quantity, a standard curve can be generated and used to determine the starting amount of mRNA transcripts based on the […] of each sample.
Quantitative real-time PCR can be done on cDNA from test compound-treated and nontreated cells by use of a ABI Prism 7900 Sequence Detection System (PE Applied Biosystems, Foster City, CA) following the Assays-on-Demand protocol (PE Applied Biosystems, Foster City, CA). Quantitative data can be analyzed using the Sequence Detection System software version 2.1 (PE Applied Biosystems).
The following compounds were tested in assays designed to identify compounds that enhance human TERT expression.
A general note: In qPCR the cycle at which signal appears reflects the starting amount.

Another data set has as its system viable cells in culture. In words: Cell viability assay (CellTiter-Glo Luminescent Cell Viability Assay, ATP quantitation, percent of vehicle control). A general note: In ATP-based viability assays light output follows the ATP content of the culture.

For the compound `Cc1[nH]c2c(-c3cccc(Br)c3)cnn2c(=O)c1Cc1ccccc1` [compound 1147], the “Average Number of hTERT Transcripts” value in data set [1] is reported as 29.83. In the data set with viable cells in culture, the “Average Cell Viability after 24 Hours (% DMSO)” value was 61.72 % DMSO.
The corresponding values for `O=c1cc(Cc2ccccc2)[nH]c2c(-c3ccccc3)c(-c3ccccc3)nn12` [compound 1148] are 108.34 and 88.31 % DMSO.
The corresponding values for `O=c1cc(Cc2ccccc2)[nH]c2c(-c3ccc(Cl)cc3)cnn12` [compound 1149] are 91.14 and 87.19 % DMSO.
Taken in the same sequence, the figures for `COc1ccc(-c2cc(=O)n3nc(C)c(-c4ccccc4)c3[nH]2)cc1` [compound 1150] were 80.37 and 86.82 % DMSO.
Consider `Cc1ccc(-c2cc(=O)n3nc(C)c(-c4ccccc4)c3[nH]2)cc1` [compound 1151], for which, in data set [1], the “Average Number of hTERT Transcripts” value is reported as 164.58. The “Average Cell Viability after 24 Hours (% DMSO)” value in the data set on viable cells in culture stood at 77.04 % DMSO.
In the case of `Cc1nn2c(=O)cc(-c3ccccc3)[nH]c2c1-c1ccc(F)cc1` [compound 1152], the “Average Number of hTERT Transcripts” value in data set [1] was found to be 64.86. For the same compound, in the data set with viable cells in culture, the “Average Cell Viability after 24 Hours (% DMSO)” value is 73.68 % DMSO.
On to `Cc1nn2c(=O)c(Cl)c(C)[nH]c2c1-c1ccccc1` [compound 1153], for which the “Average Number of hTERT Transcripts” value in data set [1] worked out at 5.84. The “Average Cell Viability after 24 Hours (% DMSO)” value in the data set on viable cells in culture was found to be 88.39 % DMSO.
The corresponding values for `COc1ccc(-c2cc(=O)n3nc(C)c(-c4ccc(F)cc4)c3[nH]2)cc1` [compound 1154] are 48.37 and 69.15 % DMSO.
Taken in the same sequence, the figures for `CCCc1c(C)[nH]c2c(-c3ccc(Cl)cc3)c(C)nn2c1=O` [compound 1155] were 15.30 and 80.19 % DMSO.
The corresponding values for `Cc1nn2c(=O)cc(-c3ccc(Cl)cc3)[nH]c2c1-c1ccccc1` [compound 1156] are 45.97 and 61.07 % DMSO.
For `Cc1cc(=O)n2ncc(-c3ccc(Cl)cc3)c2[nH]1` [compound 1157], the “Average Number of hTERT Transcripts” value in data set [1] was determined as 16.13. For the same compound, the “Average Cell Viability after 24 Hours (% DMSO)” value in the data set on viable cells in culture was 71.08 % DMSO.
The corresponding values for `CCCc1cc(=O)n2ncc(-c3ccc(Cl)cc3)c2[nH]1` [compound 1158] are 71.35 and 62.57 % DMSO.
Taken in the same sequence, the figures for `O=c1c2c([nH]c3c(-c4ccc(Cl)cc4)cnn13)CCCC2` [compound 1159] were 5.22 and 55.24 % DMSO.
Taken in the same sequence, the figures for `O=c1c2c([nH]c3c(-c4ccc(Cl)cc4)cnn13)CCC2` [compound 1160] were 54.13 and 59.19 % DMSO.
`O=c1c(-c2ccccc2)c[nH]c2c(-c3ccccc3)cnn12` [compound 1161]: the “Average Number of hTERT Transcripts” value in data set [1] was 139.82. Moreover, in the data set with viable cells in culture, the “Average Cell Viability after 24 Hours (% DMSO)” value turned out to be 62.93 % DMSO.
Taken in the same sequence, the figures for `Cc1nn2c(=O)cc(-c3ccccc3)[nH]c2c1-c1ccccc1` [compound 1162] were 113.08 and 65.07 % DMSO.
Taken in the same sequence, the figures for `Cc1nn2c(=O)cc(CSc3nnnn3-c3ccccc3)[nH]c2c1-c1ccc(Cl)cc1` [compound 1163] were 68.40 and 70.88 % DMSO.
Taken in the same sequence, the figures for `Cc1nn2c(=O)cc(-c3ccccc3Cl)[nH]c2c1-c1ccccc1` [compound 1164] were 56.66 and 71.68 % DMSO.
Take `Cc1nn2c(=O)c(Cc3ccc(Br)cc3)c(C)[nH]c2c1-c1ccccc1` [compound 1165]: the “Average Number of hTERT Transcripts” value in data set [1] was 132.12. Further, in the data set on viable cells in culture, the “Average Cell Viability after 24 Hours (% DMSO)” value is given as 55.73 % DMSO.

Values taken from patent publication US12404304B1, “Telomerase reverse transcriptase (TERT) expression enhancing compounds and methods for using the same” (Sierra Sciences, LLC, priority 2007, dated 2025).
